Measurements as given in US5616609A, “Carcinostatic compound and production thereof” (priority 1991, dated 1997).
Like-named read-outs stand apart in the source and are kept apart here.

Tests used:
[1] = tested on: MKV-74 gastric cancer cells; test: Inhibition of proliferation of human gastric cancer cells MKV-74 (Tests 2 and 4); type: cell-based; conditions: gastric cancer MKV-74, RMP-1640 + 10% calf serum, 37° C.
Method: (§1) Cells of gastric cancer, pulmonary cancer, liver cancer and leukemia, which had been separated from human patients, were separately placed in portions of RMP-1640 medium containing 10% calf serum and then incubated at 37° C. for 4 days in a 5% CO2 -incubator to obtain a cell population of 10^4 /ml. To the cells of each cancer kind so cultured, stelleramacrin was added at varied concentrations, and the concentration (IC50) of each test compound at which proliferation of the human cancer cells was inhibited by 50% was deterimined.
as §1, with “separately placed on portions of” for “separately placed in portions of”, “so cultured, gnidimacrin or pimelea factor was added” for “so cultured, stelleramacrin was added”, “(IC50) of the test compound” for “(IC50) of each test compound”, “50% was determined.” for “50% was deterimined.”

[2] = tested on: LU-99 pulmonary cancer cells; test: Inhibition of proliferation of human pulmonary cancer cells LU-99 (Tests 2 and 4); type: cell-based; conditions: pulmonary cancer LU-99, RMP-1640 + 10% calf serum, 37° C.
Method: as §1
as §1, with “separately placed on portions of” for “separately placed in portions of”, “so cultured, gnidimacrin or pimelea factor was added” for “so cultured, stelleramacrin was added”, “(IC50) of the test compound” for “(IC50) of each test compound”, “50% was determined.” for “50% was deterimined.”

[3] = tested on: Colon 26 large bowel cancer; test: Colon 26 large bowel cancer, hypodermic transplant in BALB/C mice (Test 3); type: in vivo, mouse (BALB/C); conditions: once a day for 5 days, vs control
Method: (§2) Hypodermically transplanted to induce solid cancer were Lewis pulmonary cancer cells to BDF1 mice in an amount of 1×10^6 cells per mouse, Clon 26 large bowel cancer cells to BALB/C mice in an amount of 5×10^5 cells per mouse and a 20% homogenate of B-16 melanoma solid cancer to BDF1 mice in an amount of 0.25 ml per mouse. From the following day of the transplantation, gnidimacrin and pimelea factor P2 were administered separately once a day for 5 days. Each test group was compared in apothanasia rate with a control group. The results on gnidimacrin and pimelea factor P2 are shown in Table 3 and Table 4, respectively.

[4] = tested on: N-237 pulmonary cancer cells; test: Inhibition of proliferation of human pulmonary cancer cells N-237 (Tests 2 and 4); type: cell-based; conditions: pulmonary cancer N-237, RMP-1640 + 10% calf serum, 37° C.
Method: as §1
as §1, with “separately placed on portions of” for “separately placed in portions of”, “so cultured, gnidimacrin or pimelea factor was added” for “so cultured, stelleramacrin was added”, “(IC50) of the test compound” for “(IC50) of each test compound”, “50% was determined.” for “50% was deterimined.”

[5] = tested on: solid cancer such as gastric cancer, pulmonary cancer, liver cancer; test: Inhibiting action against solid cancer (summary statement); conditions: liver cancer or the like
[6] = tested on: K-III gastric cancer cells; test: Inhibition of proliferation of human gastric cancer cells K-III (Tests 2 and 4); type: cell-based; conditions: RMP-1640 + 10% calf serum, 37° C.
Method: as §1
as §1, with “separately placed on portions of” for “separately placed in portions of”, “so cultured, gnidimacrin or pimelea factor was added” for “so cultured, stelleramacrin was added”, “(IC50) of the test compound” for “(IC50) of each test compound”, “50% was determined.” for “50% was deterimined.”

[7] = tested on: MKV-45 gastric cancer cells; test: Inhibition of proliferation of human gastric cancer cells MKV-45 (Tests 2 and 4); type: cell-based; conditions: gastric cancer MKV-45, RMP-1640 + 10% calf serum, 37° C.
Method: as §1
as §1, with “separately placed on portions of” for “separately placed in portions of”, “so cultured, gnidimacrin or pimelea factor was added” for “so cultured, stelleramacrin was added”, “(IC50) of the test compound” for “(IC50) of each test compound”, “50% was determined.” for “50% was deterimined.”

HLE liver cancer cells = test: Inhibition of proliferation of human liver cancer cells HLE (Tests 2 and 4); type: cell-based; conditions: RMP-1640 + 10% calf serum, 37° C.
Method: as §1
as §1, with “separately placed on portions of” for “separately placed in portions of”, “so cultured, gnidimacrin or pimelea factor was added” for “so cultured, stelleramacrin was added”, “(IC50) of the test compound” for “(IC50) of each test compound”, “50% was determined.” for “50% was deterimined.”

[8] = tested on: MKU-28 gastric cancer cells; test: Inhibition of proliferation of human gastric cancer cells MKU-28 (Tests 2 and 4); type: cell-based; conditions: gastric cancer MKU-28, RMP-1640 + 10% calf serum, 37° C.
Method: as §1
as §1, with “separately placed on portions of” for “separately placed in portions of”, “so cultured, gnidimacrin or pimelea factor was added” for “so cultured, stelleramacrin was added”, “(IC50) of the test compound” for “(IC50) of each test compound”, “50% was determined.” for “50% was deterimined.”

[9] = tested on: Lewis pulmonary cancer cells; test: Lewis pulmonary cancer, hypodermic transplant in BDF1 mice (Test 3); type: in vivo, mouse (BDF1); conditions: once a day for 5 days, vs control
Method: as §2

[10] = tested on: PC-7 pulmonary cancer cells; test: Inhibition of proliferation of human pulmonary cancer cells PC-7 (Tests 2 and 4); type: cell-based; conditions: pulmonary cancer PC-7, RMP-1640 + 10% calf serum, 37° C.
Method: as §1
as §1, with “separately placed on portions of” for “separately placed in portions of”, “so cultured, gnidimacrin or pimelea factor was added” for “so cultured, stelleramacrin was added”, “(IC50) of the test compound” for “(IC50) of each test compound”, “50% was determined.” for “50% was deterimined.”

B-16 melanoma = test: B-16 melanoma, hypodermic transplant in BDF1 mice (Test 3); type: in vivo, mouse (BDF1); conditions: once a day for 5 days, vs control
Method: as §2

[11] = tested on: H-69 pulmonary cancer cells; test: Inhibition of proliferation of human pulmonary cancer cells H-69 (Tests 2 and 4); type: cell-based; conditions: pulmonary cancer H-69, RMP-1640 + 10% calf serum, 37° C.
Method: as §1
as §1, with “separately placed on portions of” for “separately placed in portions of”, “so cultured, gnidimacrin or pimelea factor was added” for “so cultured, stelleramacrin was added”, “(IC50) of the test compound” for “(IC50) of each test compound”, “50% was determined.” for “50% was deterimined.”

K-502 leukemia cells = test: Inhibition of proliferation of human leukemia cells K-502 (Tests 2 and 4); type: cell-based; conditions: leukemia K-502, RMP-1640 + 10% calf serum, 37° C.
Method: as §1
as §1, with “separately placed on portions of” for “separately placed in portions of”, “so cultured, gnidimacrin or pimelea factor was added” for “so cultured, stelleramacrin was added”, “(IC50) of the test compound” for “(IC50) of each test compound”, “50% was determined.” for “50% was deterimined.”

[12] = tested on: PC-14 pulmonary cancer cells; test: Inhibition of proliferation of human pulmonary cancer cells PC-14 (Tests 2 and 4); type: cell-based; conditions: pulmonary cancer PC-14, RMP-1640 + 10% calf serum, 37° C.
Method: as §1
as §1, with “separately placed on portions of” for “separately placed in portions of”, “so cultured, gnidimacrin or pimelea factor was added” for “so cultured, stelleramacrin was added”, “(IC50) of the test compound” for “(IC50) of each test compound”, “50% was determined.” for “50% was deterimined.”

[13] = tested on: mouse leukemia cell P-388; test: P-388 mouse leukemia, intraperitoneal transplant in BDF1 mice, survival (Test 1); type: in vivo; conditions: 1 mg/kg, once a day for 5 days
Text: The mouse leukemia cell P-388 was intraperitoneally transplanted to BDF1 mice in an amount of 1×10^6 cells per mouse. From the following day, each test drug was intraperitoneally administered to the mice once a day for 5 days. Each test group was compared in the number of survival days with a control group to determine an apothanasia rate.

Acute toxicity (LD50) = conditions: in vivo; species and route not given
[14] = tested on: Lewis pulmonary cancer cells; test: Lewis pulmonary cancer in mice, intravenous administration; type: in vivo, mouse; conditions: 0.06 mg/Kg
Meth A fibrosarcoma = Meth A fibrosarcoma solid cancer in male BALB/c mice, injection into the cancer (Test 5); type: in vivo, mouse (BALB/c); conditions: 0.001 mg/Kg injected into solid cancer once a day for 5 days, 21st day
Method: Using laboratory animals, effects of gnidimacrin on solid cancer were studied. First, intradermally inoculated to male BALB/c mice (each group consisting of 6 mice, each having a weight of 17-21 g) was 0.01 ml of RPMI 1640 solution which contained 10% fetal serum and 1×10^5 cells/ml of Meth A fibrosarcoma. Seven days after the inoculation, solid cancer was formed. Into the solid cancer, gnidimacrin which had been dissolved in physiological saline containing 0.5% CMC, was administered at 0.001 mg/Kg by injection. That administration was conducted once a day for 5 days. On the 21st day from the inoculation of Meth A fibrosarcoma, the cancer was cut out and its weight was compared with that of a control group not administered with gnidimacrin. […] Namely, gnidimacrin inhibited the proliferation of the solid cancer by 81%.

C=C(C)[C@]12C[C@@H](C)[C@@]34OC5(CCCCCCC[C@H](C)[C@H]6[C@H](C)[C@H](OC(=O)c7ccccc7)[C@@](O)([C@H](O)[C@@]7(CO)O[C@H]7[C@H]3[C@H]1O5)[C@@H]64)O2 [Pimelea factor P2, pimelea factor P2]
IC50 [1]: 10 µg/mL
IC50 [2]: 10 µg/mL
Apothanasia rate ([3]; 0.05 mg/kg): 18.5%
IC50 [4]: 3.8 µg/mL
inhibiting action against solid cancer [5]: strong inhibiting action
IC50 [6]: 0.003 µg/mL
IC50 [7]: 0.005 µg/mL
IC50 (HLE liver cancer cells): 10 µg/mL
IC50 [8]: 0.01 µg/mL
Apothanasia rate ([9]; 0.1 mg/kg): 35.2%
IC50 [10]: 1.7 µg/mL
Apothanasia rate (B-16 melanoma; 0.1 mg/kg): 41.8%
IC50 [11]: 7 µg/mL
IC50 (K-502 leukemia cells): 0.3 µg/mL
IC50 [12]: 3.2 µg/mL

C=C(C)C12CC(COC(=O)c3ccccc3)C34OC5(OC1C3C1OC1(CO)C(O)C1(O)C(O)C(C)C(C(C)CCCCCCC5O)C14)O2 (single isomer, unassigned) [Stelleramacrin A]
IC50 ([1]; Homo sapiens, read-out: IC50): > 10 µg/mL
IC50 ([2]; Homo sapiens, read-out: IC50): > 10 µg/mL
IC50 ([4]; Homo sapiens, read-out: IC50): 5.3 µg/mL
IC50 ([6]; Homo sapiens, read-out: IC50): 0.1 µg/mL
IC50 ([7]; Homo sapiens, read-out: IC50): 0.8 µg/mL
Average number of survival days ([13]; control group 8.08 days): 13.83 days
Apothanasia rate ([13]; survival days vs control): 71%
LD50 (Acute toxicity (LD50)): 5 mg/kg
IC50 (HLE liver cancer cells; Homo sapiens, read-out: IC50): > 10 µg/mL
IC50 ([8]; Homo sapiens, read-out: IC50): 0.2 µg/mL
IC50 ([10]; Homo sapiens, read-out: IC50): 5.1 µg/mL
IC50 ([11]; Homo sapiens, read-out: IC50): 10.2 µg/mL
IC50 (K-502 leukemia cells; Homo sapiens, read-out: IC50): 10 µg/mL
IC50 ([12]; Homo sapiens, read-out: IC50): 8.4 µg/mL

C=C(C)[C@@]12C[C@@H](COC(=O)c3ccccc3)[C@@]34OC5(O[C@@H]1[C@@H]3[C@@H]1O[C@]1(CO)[C@@H](O)[C@@]1(O)[C@H]4[C@H]([C@H](C)[C@@H]1OC(=O)c1ccccc1)[C@H](C)CCCCCC[C@H]5O)O2 (single isomer, unassigned) [Gnidimacrin, gnidimacrin]
IC50 ([1]; Homo sapiens, read-out: IC50): > 1 µg/mL
IC50 ([2]; Homo sapiens, read-out: IC50): 1 µg/mL
Apothanasia rate ([3]; 0.01 mg/kg): 26.8%
IC50 ([4]; Homo sapiens, read-out: IC50): 0.2 µg/mL
inhibiting action against solid cancer [5]: strong inhibiting action
IC50 ([6]; Homo sapiens, read-out: IC50): 0.0006 µg/mL
IC50 ([7]; Homo sapiens, read-out: IC50): 0.0001 µg/mL
Apothanasia rate [14]: 47.8%
IC50 (HLE liver cancer cells; Homo sapiens, read-out: IC50): 2 µg/mL
IC50 ([8]; Homo sapiens, read-out: IC50): 0.006 µg/mL
Apothanasia rate ([9]; 0.02 mg/kg): 40.0%
IC50 ([10]; Homo sapiens, read-out: IC50): 0.5 µg/mL
Apothanasia rate (B-16 melanoma; 0.02 mg/kg): 49.2%
IC50 ([11]; Homo sapiens, read-out: IC50): 0.6 µg/mL
IC50 (K-502 leukemia cells; Homo sapiens, read-out: IC50): 0.0025 µg/mL
IC50 ([12]; Homo sapiens, read-out: IC50): 0.85 µg/mL
average cancer weight (Meth A fibrosarcoma; control group 2.1 g): 0.4 g
inhibition of the proliferation of the solid cancer (Meth A fibrosarcoma; vs control): 81%
